Reference: patent US20070148159A1, “Use of crotoxin as an analgesic - CIP” (priority 2005, published 2007)
Counter-ions that a name gives are not always drawn.

What was measured:
mice = format: in vivo, mouse; conditions: for inhibition of the activity of Crotoxin: summary statement on antagonist studies
[1] = cited from earlier work
[2] = format: in vivo; conditions: hot-plate model; test end point 180 minutes

Structure (SMILES) | effect on Crotoxin-induced analgesia, hotplate test (mice; Atropine 0.25-1 mg/kg, Naloxone 1.25-5 mg/kg) | inhibition of the activity of Crotoxin (mice) | analgesic potency relative to morphine ([1]; halved again when given orally rather than parenterally) | duration of activity ([1]; in vivo) | onset of activity ([1]; in vivo) | time of maximal effect on hot-plate response [2]
C=CCN1CC[C@]23c4c5ccc(O)c4O[C@H]2C(=O)CC[C@@]3(O)[C@H]1C5 [Naloxone] | no effect | failed to inhibit |  |  |  | 
CCOC(=O)C1(c2ccccc2)CCN(C)CC1 [Dolantin, Meperidine hydrochloride] |  |  | one-tenth as potent an analgesic as morphine | 2 to 4 h | 10 to 45 min | 30 min
CN1[C@@H]2CC[C@H]1C[C@@H](OC(=O)C(CO)c1ccccc1)C2 (stereo partly shown) [Atropine] |  | failed to inhibit |  |  |  | 
